This note sets out measurements from ChEMBL document CHEMBL1909492, “Discovery of 1-arylcarbonyl-6,7-dimethoxyisoquinoline derivatives as glutamine fructose-6-phosphate amidotransferase (GFAT) inhibitors” (Bioorg Med Chem Lett, 2011).

The nature of series [1]: Oral bioavailability in rat at 50 mg/kg. Conditions: in vivo. The class given is ADME, organism-based.
Series [2] in a line: Solubility of the compound at pH 6.4. The class given is physicochemical. To be noted: buffer.
The nature of series [3]: Photo-degradation of compound in solid state over years by HPLC analysis. The class given is physicochemical.
Series [4] is described as follows: Apparent permeability across human Caco2 cell membrane. The class given is ADME, cell-based. To be noted: Caco-2. A general note: Caco-2 cells form a polarised layer with tight junctions and transporters.
Series [5] is described as follows: Tmax in rat at 50 mg/kg, po. Conditions: in vivo. The class given is ADME, organism-based. Details: dose 50 mg/kg, route oral.
A short description of series [6]: Inhibition of GFAT-beta expressed in COS cells using […] as substrate.
The test system of series [7] is Mus musculus. The experiment in a line: Antidiabetic activity in […] ob/ob mouse assessed decrease of glucose AUC at 50 mg/kg, po at 4 hr and 1 hr prior to oral glucose challenge by oral glucose tolerance test relative to control. Details: scale not given: the % may be the effect or the level left. The class given is functional.
A short description of series [8]: AUC in rat at 50 mg/kg, po. The class given is ADME, organism-based. Details: dose 50 mg/kg, route oral. To be noted: plasma.
Series [9] addresses T1, Glutamine--fructose-6-phosphate aminotransferase [isomerizing] 1 (Homo sapiens, UniProt Q06210). The experiment in a line: Reversible inhibition of GFAT.
Series [10] in a line: AUC in rat at 10 mg/kg, iv. The class given is ADME, organism-based. The arrangement: dose 10 mg/kg, route intravenous. Conditions: plasma.
Series [11] can be described thus: Lipophilicity, log D of the compound at pH 7.2. The class given is physicochemical. To be noted: buffer.
Series [12] has as its target T1, Glutamine--fructose-6-phosphate aminotransferase [isomerizing] 1. The experiment in a line: Competitive inhibition of GFAT in presence of glutamine.
For series [13], the system named is Mus musculus. The experiment in a line: Antidiabetic activity in fasted ob/ob mouse assessed as deduction of glucose excursion at 50 mg/kg, po at 4 hr and 1 hr prior to oral glucose challenge by oral glucose tolerance test. The class given is functional, organism-based. Details: dose 50 mg/kg.
Series [14] is described as follows: Volume of distribution in rat at 10 mg/kg, iv. The class given is ADME, organism-based. The arrangement: dose 10 mg/kg, route intravenous. Conditions: in vivo.
Series [15] is described as follows: Cmax in rat at 50 mg/kg, po. To be noted: in vivo. The class given is ADME, organism-based. Details: dose 50 mg/kg, route oral.
The nature of series [16]: Clearance in rat at 10 mg/kg, iv. The class given is ADME, organism-based. To be noted: in vivo. The arrangement: dose 10 mg/kg, route intravenous.
Series [17] has as its target T1, Glutamine--fructose-6-phosphate aminotransferase [isomerizing] 1. Briefly: Noncompetitive inhibition of GFAT in presence of fructose-6-phosphate.
The nature of series [18]: Photo-degradation of compound in DMSO exposed to daylight at 1 mM after 24 hrs by HPLC analysis. Conditions: 1000 µM. The class given is physicochemical.
A short description of series [19]: Photo-degradation of compound in DMSO at 1 mM after 2 hrs by LC/MS analysis. To be noted: read-out: Activity. The class given is physicochemical.
A short description of series [20]: Half life in rat at 10 mg/kg, iv. The class given is ADME, organism-based. Details: dose 10 mg/kg, route intravenous. To be noted: in vivo.
Series [21] is described as follows: Photo-degradation of compound in DMSO at 1 mM after 2 hrs by HPLC/UV spectrophotometric analysis. The class given is physicochemical. To be noted: read-out: Activity.
Series [22] addresses T1, Glutamine--fructose-6-phosphate aminotransferase [isomerizing] 1. The experiment in a line: Irreversible inhibition of GFAT.
Series [23] shares this target. Briefly: Inhibition of GFAT using […] as substrate.

In brackets after ≈: the same amount, converted by molar mass. Activity calls are given as the source filed them.

T1 sequence (Q06210 whole entry): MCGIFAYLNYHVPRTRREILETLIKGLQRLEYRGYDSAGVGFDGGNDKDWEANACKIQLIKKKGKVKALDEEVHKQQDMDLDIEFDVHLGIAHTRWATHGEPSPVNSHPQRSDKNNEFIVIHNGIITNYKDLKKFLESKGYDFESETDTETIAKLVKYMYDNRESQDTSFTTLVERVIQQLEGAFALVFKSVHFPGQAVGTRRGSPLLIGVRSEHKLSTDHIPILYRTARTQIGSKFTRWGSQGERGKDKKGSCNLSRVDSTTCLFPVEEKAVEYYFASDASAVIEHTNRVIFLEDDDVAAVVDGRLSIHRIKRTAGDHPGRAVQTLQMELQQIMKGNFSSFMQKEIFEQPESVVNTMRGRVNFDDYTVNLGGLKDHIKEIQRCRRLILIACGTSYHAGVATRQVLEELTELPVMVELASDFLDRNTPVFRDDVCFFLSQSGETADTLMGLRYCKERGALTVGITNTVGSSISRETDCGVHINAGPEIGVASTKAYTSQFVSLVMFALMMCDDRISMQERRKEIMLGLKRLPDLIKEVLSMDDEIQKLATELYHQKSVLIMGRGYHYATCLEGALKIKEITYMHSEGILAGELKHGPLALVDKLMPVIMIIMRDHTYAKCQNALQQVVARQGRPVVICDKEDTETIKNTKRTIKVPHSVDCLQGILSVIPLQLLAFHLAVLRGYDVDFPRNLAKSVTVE

Regarding `COc1cc2c(CNS(=O)(=O)C(F)(F)F)cnc(C(=O)c3cccc(OC(C)C)c3)c2cc1OC`, the bioavailability (in general, dose-corrected exposure relative to a reference, in per cent) in series [1] was determined as 91%. For the same compound, the solubility – broadly, the concentration that dissolves in the medium under given conditions – in series [2] was determined as 3 µg/mL (≈ 5.85 µM). The Stability result in [3] and in series [18] was “Stable” in each case. Moreover, the Papp (in general, the rate of passage across a membrane or cell layer, normalised by area and donor concentration) in series [4] turned out to be 35.7 ×10⁻⁶ cm/s. Moreover, the Tmax (as a rule, the time at which the peak concentration occurs) in series [5] is 1 h. In addition, the IC50 (as a rule, the concentration needed to halve the response being measured) in [6] amounted to 1000 nM. Besides, the Activity in the series on Mus musculus [7] is more than 35%. The AUC (usually the area under the concentration-time curve, a measure of exposure) in series [8] was found to be 239 µg·h/mL; in series [10], 52.3 µg·h/mL. The inhibition result in series [9] is “Active”. In series [11], the logD (as a rule, the decadic logarithm of the distribution of all forms, ionised or not, between an organic phase and buffer at a given pH) came to 2.89. Moreover, the Ki in series [12] and in series [17] was 300 nM throughout. For the same compound, the outcome in the series on Mus musculus [13] was Active. For the same compound, in [14], the Vd (as a rule, the apparent volume that relates the amount in the body to the concentration in plasma or blood) stood at 0.4 L/kg. Further, the Cmax – broadly, the maximum level reached in the sampled fluid or tissue – in [15] came to 112 µM. In addition, the clearance (commonly the volume of plasma or blood freed of the substance per unit of time) in [16] came out at 3.2 mL/min/kg. The degraded at 2 h, 1000 µM in series [19] was determined as 30%. Further, the half-life (usually the time needed for the level to fall by half in the phase considered) in series [20] was 1.68 h.
On to `COc1cccc(C(=O)c2ncc(C(=O)O)c3cc(OC)c(OC)cc23)c1`, for which it took 1200 nM to reach half-maximal inhibition in series [6] (IC50).
In series [6], `COc1cc2c(C(=O)O)cnc(C(=O)c3ccccc3)c2cc1OC` yielded an IC50 of 10000 nM.
On the same count and under the same terms, the same measure for `COc1cccc(C(O)c2ncc(C(=O)O)c3cc(OC)c(OC)cc23)c1` (centres undefined): more than 100000 nM.
`COc1cc2c(CNC(C)=O)cnc(C(=O)c3cccc(OC(C)C)c3)c2cc1OC` showed an IC50 in series [6] of 1100 nM.
In [6], `COc1cc2c(CNS(=O)(=O)C(F)(F)F)cnc(C(=O)c3c(F)cccc3F)c2cc1OC` returned an IC50 of 4330 nM.
`COc1cc2c(CN3C(=O)CSC3=O)cnc(C(=O)c3cccc(OC(C)C)c3)c2cc1OC`: half-maximal inhibition in series [6] (IC50) required 820 nM.
Consider `COc1ccc(F)c(C(=O)c2ncc(C(=O)O)c3cc(OC)c(OC)cc23)c1`, for which, in [21], the degraded at 2 h, 1000 µM came to 25.4%. Moreover, in [6], it took 870 nM to reach half-maximal inhibition (IC50).
In series [6], `COc1cc2c(C(=O)O)cnc(C(=O)c3c(F)ccc(OC)c3F)c2cc1OC` yielded an IC50 of 940 nM.
For the compound `COc1cc2c(C(=O)O)cnc(C(=O)c3c(F)ccc(OC(C)C)c3F)c2cc1OC`, half-maximal inhibition in series [6] (IC50) was put at 900 nM.
In the case of `N[C@@H](CNC(=O)CBr)C(=O)O`, the concentration for half-maximal inhibition (IC50) in [22] came out at 150 nM.
In series [6], `COc1cc2c(Cn3oc(=O)[nH]c3=O)cnc(C(=O)c3cccc(OC(C)C)c3)c2cc1OC` registered a concentration for half-maximal inhibition (IC50) of 580 nM.
On the same count and under the same terms, then `COc1ccc(F)c(C(=O)c2ncc(CNS(=O)(=O)C(F)(F)F)c3cc(OC)c(OC)cc23)c1`, with 680 nM.
In series [22], `COC(=O)/C=C/C(=O)NC[C@H](N)C(=O)O` displayed an IC50 of 400 nM.
Compound `COc1cccc(C(=O)c2ncc(C(=O)O)c3ccc(OC)cc23)c1` returned an IC50 in [6] of more than 100000 nM.
Same read-out and setting: the same measure for `COc1ccc(C(=O)c2ncc(C(=O)O)c3cc(OC)c(OC)cc23)cc1`: more than 100000 nM; for `COc1cccc(C(=O)c2ncc(C(=O)O)c3cc(OC)ccc23)c1`: more than 100000 nM.
`CCOc1cccc(C(=O)c2ncc(-c3nn[nH]n3)c3cc(OC)c(OC)cc23)c1` returned a 50% inhibitory concentration (IC50) in series [6] of 800 nM.
As for `COc1cc2c(C(=O)O)cnc(C(=O)c3c(F)cccc3F)c2cc1OC`, the degraded at 2 h, 1000 µM in series [21] came out at 0%. Also, the IC50 in series [6] came out at 9930 nM. Also, the inhibition entry in series [9] is “Active”.
Compound `COc1cccc(C(=O)c2ncc(C(=O)O)c3cc(O)c(OC)cc23)c1` showed an IC50 in series [6] of more than 100000 nM.
On to `COc1cc2ccnc3c2c(c1OC)NC=C3` [AAPTAMINE], for which it took 120000 nM to reach half-maximal inhibition in series [23] (IC50).
Compound `CCOc1cccc(C(=O)c2ncc(C(=O)O)c3cc(OC)c(OC)cc23)c1` came in with an IC50 in series [6] of 830 nM.
The same measure, in the same setting: then `COc1ccc(Cc2ncc(C(=O)O)c3cc(OC)c(OC)cc23)cc1OC`, with more than 100000 nM.
`COc1cc2c(CNS(C)(=O)=O)cnc(C(=O)c3cccc(OC(C)C)c3)c2cc1OC` yielded an IC50 in series [6] of 900 nM.
For the compound `COc1cc2c(C(=O)O)cnc(C(=O)c3cc(OC(C)C)ccc3F)c2cc1OC`, in series [21], the degraded at 2 h, 1000 µM was determined as 22%. For the same compound, the IC50 in series [6] was 2500 nM.
Consider `COc1cc2c(C(=O)O)cnc(C(=O)c3cccc(OC(C)C)c3)c2cc1OC`, for which the degraded at 2 h, 1000 µM in series [21] amounted to 75.9%. Also, the IC50 in [6] was found to be 720 nM.
`COc1cc2c(CC(=O)O)cnc(C(=O)c3cc(OC(C)C)ccc3F)c2cc1OC`: half-maximal inhibition in series [6] (IC50) was put at 1900 nM.
Same read-out and setting: the same measure for `COc1cccc(NC(=O)c2ncc(C(=O)O)c3cc(OC)c(OC)cc23)c1`: more than 100000 nM; for `COc1cccc(C(=O)c2ncc(C(=O)O)c3ccccc23)c1`: more than 100000 nM.
With `COc1ccc(C(=O)c2ncc(C(=O)O)c3cc(OC)c(OC)cc23)cc1OC`, the IC50 in series [6] came to 20000 nM.
